One data set relates to DHFR. The settings on record: ChEMBL substructure search; cited from earlier work.
Data set [1] deals with endothelium-denuded rat pulmonary arterial rings. The data set can be described thus: Vasorelaxation of PE pre-contracted endothelium-denuded (E−) pulmonary arterial rings, organ bath. The settings on record: for IC50: Table S3, endothelium-denuded, read-out: E- Vaso. pIC50 (converted); for EC50: endothelium-denuded (E−) rings pre-contracted with 10^-5 M PE, cumulative 0.0001–30 µM, mean (SEM), n = 6, read-out: Vaso E− EC50 µM (SEM); for Emax: maximal relaxation, endothelium-denuded rings, up to 30 µM, mean ± SEM.

Another data set relates to A549 cells. The data set can be described thus: MTT cytotoxicity assay in A549 cells. The class given is cell-based. The settings on record: Homo sapiens. As for the experimental part: A 3-[4,5-dimehyl-2-thiazolyl]-2,5-diphenyl-2H-tetrazoliumbromide (MTT) assay was utilized to assess the concentration-response curves for quinazoline analogues as previously reported. A549 cells (ATCC CCL-185, human alveolar basal epithelial cell line) were used to account for the general cytotoxicity of compounds. Cells were cultured in DMEM medium containing fetal bovine serum (FBS; 10%), penicillin (10 U/mL), and streptomycin (100 U/mL). The temperature was maintained at 37 °C with 5% CO2. Cells were seeded for 16–18 h in DMEM and incubated for 72 h with the test compounds. After incubation, MTT (5 mg/mL in normal saline) was added with DMEM and incubated for 3 h. Careful decantation of the medium and addition of DMSO (50 µL) was done. Absorbance values were recorded at 570 nm after 5 min mechanical shaking of the microplate (Sunrise microplate reader, Tecan).
The activity was presented as the inhibitory concentration required to produce a 50% response (IC50). Prism 6.0 GraphPad Software Inc., (San Diego, CA, USA) was utilized for data fitting. 0.5% DMSO was used as the negative control.

The next data set can be described thus: physchem. The conditions noted are these: for solubility thermodynamic at 6 h: pH 7.4, aqueous buffer, thermodynamic from solid. As for the experimental part: The solubility of the compounds under investigation here were assessed in phosphate buffer at pH 7.4 using the equilibrium shake-flask method.
An equilibrium shake-flask technique was used to determine the solubility of samples in PBS at pH 7.4. Approximately 1 mg of sample was placed in a 10 mL glass screw top vial and dissolved in 1 mL of 0.02 M PBS at pH 7.4. The solution was sonicated for 1 h, followed by shaking for 6 h (IKA HS 260). The saturated solution was then filtered using a nylon syringe filter. A standard solution of each sample was prepared by dissolving a weighed amount of the sample in 1 mL of DMSO. The concentration of sample dissolved in the PBS solution was determined by comparing the peak area of the PBS and DMSO standard using an Agilent 1100 series HPLC with a Sunshell C8 column (Chromanik Technologies Inc., Osaka, Japan). A 100 µL injection of the aqueous sample and 5 µL of DMSO solution (pre-diluted 100 fold using DMSO) were used.

Data set [2] concerns endothelium-intact rat pulmonary arterial rings. The data set can be described thus: Vasorelaxation of PE pre-contracted endothelium-intact (E+) pulmonary arterial rings, organ bath. The conditions noted are these: for Emax / IC50 / EC50: Rattus norvegicus; for IC50: Table S3, endothelium-intact, read-out: E+ Vaso. pIC50 (converted); for EC50: endothelium-intact (E+) rings pre-contracted with 10^-5 M PE, cumulative 0.0001–30 µM, mean (SEM), n = 6, read-out: Vaso E+ EC50 µM (SEM).

Data set [3] has as its system PE-induced contraction of endothelium-denuded pulmonary arterial rings. In words: Inhibition of phenylephrine (PE)-induced contraction in endothelium-denuded arterial rings. Also noted: species or system rat. The settings on record: 10 µM compound, 15 min pre-incubation, E− rings; for inhibition at 10 µM: Rattus norvegicus, PE 0.0001–100 µM, n = 3–5, read-out: % PE-Contraction Inhibition (SEM); for maximal contraction induced by PE attenuated to: remaining contraction. As for the experimental part: These experiments were undertaken to assess the pharmacological activity of quinazoline analogues against the structurally related α1 receptor blocker (prazosin). In contrast to previous vasorelaxant experiments, this protocol was developed to determine the inhibitory effect of pre-incubated (15 min) inhibitors (10 µM) on the concentration-dependent vasoconstriction induced by cumulative addition of PE (0.0001–100 µM) in endothelium-denuded pulmonary arterial rings. Figure 5 illustrates the real time contractile response shown by the pulmonary arterial ring upon cumulative addition of PE, which evoked a concentration-dependent vasoconstriction, increasing the vessel’s tension.
After anesthesia with thiopental sodium (100 mg/kg, i.p.) (Anesthal®, Jagsonpsal Pharmaceutical Ltd., Haryana, India), rats were euthanized by exsanguination. Lungs were carefully excised, cleaned by the removal of connective tissue, and placed in cold physiological Krebs’ solution composed of (mM): NaCl 122; KCl 5; N-[2-hydroxyethyl] piperazine-N′-[2-ethane-sulfonic acid] (HEPES) 10; KH2PO4 0.5; NaH2PO4 0.5; MgCl2 1; CaCl2 1.8; and glucose 11 adjusted to pH 7.3 using 1 M NaOH. The pulmonary artery was isolated from the lungs and cut into rings approximately 2 mm in length before mounting in the organ bath chambers. Endothelial cells were mechanically removed in some experiments by gentle rubbing of the inner surface with forceps. Pulmonary arterial rings were mounted on intraluminal wires via stainless steel hooks maintaining the resting tension at 1 g and rings were equilibrated for 30 min before obtaining a stable contraction with 10^−5 M phenylephrine (PE). The rings were immersed in 10 mL baths containing physiological Krebs’ solution at 37 °C, which was continuously bubbled with air. Force transducers were connected with intraluminal wires to measure isometric tension via a Mac Lab A/D converter (Chart V5, A.D. Instruments, Castle Hill, NSW, Australia). The functional integrity of the endothelium in the vessels was confirmed by vasorelaxation of ≥70% with sequential addition of 10^−5 M acetylcholine (ACh) to pre-contracted vessels with 10^−5 M PE. Relaxations ≤30% to 10^−5 M ACh in vessels rubbed mechanically were considered successfully endothelium denuded.
The protocol included the assessment of the inhibitory vasoconstriction effect of quinazoline test compounds on endothelium-denuded arterial rings. Briefly, the arterial rings were treated with the α1-receptor blocker (prazosin) or test compound at a concentration of 10 µM for 15 min before construction of the second concentration response curve with cumulative addition of PE (0.0001–100 µM). The same conditions were used to test the effects of the solvent (DMSO 0.2%). The results were obtained in percentages by comparison of the maximum contraction without treatment with the contraction in the presence of the test compound [24, 36, 37].

The subject of a further data set is Glucose Transporter. Also noted: method as in earlier work. The settings on record: ChEMBL substructure search; cited from earlier work.
The target in another data set is PDE-5 (Homo sapiens, UniProt O76074). The conditions noted are these: cited from earlier work.
The next data set deals with α1 adrenergic receptor. The settings on record: α1 adrenergic receptor antagonist; ChEMBL substructure search; cited from earlier work.
The subject of data set [4] is Aldehyde dehydrogenase 1A1. Further details: method as in earlier work. The conditions noted are these: ChEMBL substructure search; cited from earlier work.
Where [5] appears, read: A549, MTT, 72 h incubation, read-out: A549 IC50, µM (S.D.).
Where [6] appears, read: Table S3, A549, read-out: Cytox. pIC50 (converted).
Where [7] appears, read: maximal relaxation, endothelium-intact rings, up to 30 µM, mean ± SEM.

≈ marks a conversion by molar mass, not a printed value. Counter-ions that a name gives are not always drawn. Like-named read-outs stand apart in the source and are kept apart here.

Take `COc1cc(NCc2ccc3nc(N)nc(N)c3c2C)cc(OC)c1OC` [Trimetrexate]: the “Activity” value in the data set with DHFR is 3 nM.
Consider `c1csc(CNc2nc(Nc3ccc(N4CCOCC4)cc3)nc3ccccc23)c1` [Compound 8], for which, in [1], the IC50 was 8.51 µM, the EC50 came out at 8.5 µM and the Emax was 100%. Moreover, in the data set on A549 cells (setting [5]), the IC50 was 11.4 µM. Moreover, the IC50 with A549 cells (setting [6]) was 11.5 µM. In addition, in “physchem” (6 h, pH 7.4), the “Log Sol” value is recorded as -0.32 and the “Sol. pH7.4 (µM)” value was found to be 0.48 µM. In addition, the thermodynamic solubility at 6 h in “physchem” stood at 200 µg/mL (≈ 479 µM). Besides, in data set [2] (setting [7]), the maximal response (Emax) came out at 98.8 ± 0.79% and the “E+ Emax (%)” value was found to be 98.88 ± 0.79%. Also, in [2], the IC50 is 0.575 µM and the concentration for a half-maximal effect (EC50) was determined as 0.58 µM. In data set [3], the inhibition at 10 µM was 42.4% and the “maximal contraction induced by PE attenuated to” value (from here on “maximal contraction induced”) came to 56.38 ± 7.10%.
As for `Cc1ccccc1Nc1nc(Nc2ccccc2)c2ccccc2n1.Cl` [CHEMBL582356], in the data set with Glucose Transporter, the “Activity” value is 4.496 µM.
On to `c1ccc(CNc2nc(Nc3ccc(N4CCOCC4)cc3)nc3ccccc23)cc1` [Compound 2], for which, in [1], the IC50 was 12 µM, the EC50 was found to be 12 µM and the Emax turned out to be 85.7 ± 6.05%. Besides, the IC50 in the data set with A549 cells (setting [5]) worked out at 12.1 µM. Besides, the IC50 in the data set on A549 cells (setting [6]) is 12 µM. Moreover, in the data set “physchem” (6 h, pH 7.4), the “Log Sol” value is given as -0.22 and the “Sol. pH7.4 (µM)” value worked out at 0.60 µM. In “physchem”, this compound showed a thermodynamic solubility at 6 h of 250 µg/mL (≈ 608 µM). The compound also yielded a maximal effect (Emax) in data set [2] (setting [7]) of 94.7 ± 3.33%. Further, in [2], the IC50 is 5.01 µM and the EC50 amounted to 4.98 µM. In data set [3], the inhibition at 10 µM turned out to be 56.6% and the “maximal contraction induced” value was 43.38 ± 5.90%.
With `O=C(Nc1ccccc1)Nc1ccc(Nc2nc(NCc3cccs3)c3ccccc3n2)cc1` [Compound 7], in data set [1], the IC50 was more than 30 µM, the EC50 was more than 30 µM and the Emax came out at 22.3 ± 4.4%. Besides, in the data set with A549 cells (setting [5]), the IC50 came to 2.91 µM. Also, in the data set with A549 cells (setting [6]), the IC50 is 2.88 µM. Further, in “physchem” (6 h, pH 7.4), the “Log Sol” value was -0.66 and the “Sol. pH7.4 (µM)” value was determined as 0.22 µM. This compound also showed a solubility (thermodynamic) at 6 h in “physchem” of 100 µg/mL (≈ 214 µM). In addition, the Emax in data set [2] (setting [7]) amounted to 76 ± 5.73%. Also, in [2], the IC50 was 4.07 µM and the EC50 came to 4.1 µM. Also, in data set [3], the inhibition at 10 µM was found to be 43.6% and the “maximal contraction induced” value stood at 57.57 ± 5.99%.
Consider `COc1cc2nc(N(C)C3CCN(Cc4ccccc4)CC3)nc(N)c2cc1OC` [CHEMBL527902], for which the “Activity” value in the data set on Glucose Transporter was 4.087 µM.
As to `COc1cccc2c(NCc3ccccc3)nc(NCCCN3CCCCC3C)nc12` (stereo not shown) [CHEMBL546792], in the data set on Glucose Transporter, the “Activity” value was 4.102 µM.
As to `Clc1cnc(Nc2ccccc2)nc1NCc1ccccc1` [Compound 14], the “PDE-5 activity (in words)” value at PDE-5 was “borderline PDE-5 inactive”. The IC50 in data set [1] was 10.7 µM; in the data set with A549 cells (setting [5]), more than 100 µM; in the data set with A549 cells (setting [6]) it was more than 100 µM; in data set [2], 4.47 µM. The 50% effective concentration (EC50) in [1] was 10.7 µM; in data set [2] it was 4.49 µM. The Emax in [1] was found to be 54.7 ± 6.12%; in data set [2] (setting [7]), 67.8 ± 5.34%. The “Log Sol” value in “physchem” (6 h, pH 7.4) was 0.51. Moreover, the “Sol. pH7.4 (µM)” value in “physchem” (6 h, pH 7.4) is given as 3.27 µM. The compound also gave a thermodynamic solubility at 6 h in “physchem” of 1020 µg/mL (≈ 3280 µM).
Take `COc1cc2nc(N3CCN(C(=O)c4ccco4)CC3)nc(N)c2cc1OC` [Prazosin (PZN), Prazosin HCl, reference compound]: the “Activity” value in the data set on α1 adrenergic receptor is listed as 1 nM. Further, in the data set “physchem” (6 h, pH 7.4), the “Sol. pH7.4 mg/mL” value came out at 0.55 mg/mL and the “Sol. pH7.4 (µM)” value is reported as 1.42 µM. Also, the solubility (thermodynamic) at 6 h in the data set “physchem” was determined as 550 µg/mL. Further, the inhibition at 10 µM in data set [3] turned out to be 98%.
As for `COc1cc2nc(N3CCN(C(=O)c4ccco4)CC3)nc(N)c2cc1OC` [PRAZOSIN HYDROCHLORIDE], in data set [4], the “Activity” value is 25 µM.
Regarding `COc1cc2nc(N(C)CCCNC(=O)C3CCCO3)nc(N)c2cc1OC` (stereo not shown) [Alfuzosin], the “Activity” value with α1 adrenergic receptor was 3 nM.
As for `CCOc1ccc2ccccc2c1-c1cc2nc(N)nc(N)c2cc1C` [CHEMBL1818128], the “Activity” value in the data set with DHFR is listed as 4.5 nM.

What is called EC50 is the midpoint of the concentration-response curve. Usually Emax stands for the greatest response seen or fitted, relative to the assay's reference. The thermodynamic solubility is solubility found after equilibrating the solid with the medium. As usually defined, the inhibition is how much of the control response was suppressed.

Values taken from paper PMC6358775, “Elucidation of Vasodilation Response and Structure Activity Relationships of N^2,N^4-Disubstituted Quinazoline 2,4-Diamines in a Rat Pulmonary Artery Model” (Molecules, 2019).
